Values after ≈ are worked out from the molar mass of the structure shown. Where two headings read alike, the source gives them in different places. Each block holds one compound with its values, some of them ahead of it.
What was measured:
Assay in all cases: in vitro antibacterial evaluation, MIC by broth dilution
Assay type in all cases: cell-based
Enterococcus sp. = system: Enterococcus sp.
Method in brief: (§1)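 MIC, the lowest antibiotic concentration preventing growth, was read across 64-0.06 μg/mL with 5×10^5 CFU/mL inoculum. Method followed NCCLS M7-A2 broth dilution using Mueller-Hinton II; Gram-positive strains covered recent methicillin-, penicillin- and/or vancomycin-resistant clinical isolates.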

Staphylococcus sp. = system: Staphylococcus sp.
Method in brief: as §1

Streptococcus sp. = system: Streptococcus sp.
Method in brief: as §1

Escherichia coli = system: Escherichia coli
Method in brief: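 MIC is the lowest antibiotic concentration (tested 64-0.06 μg/mL) preventing growth of a 5×10^5 CFU/mL inoculum. Determined by broth dilution in Mueller-Hinton II medium following NCCLS standard M7-A2.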

[1] = broth dilution, 18 hours at 35° C.

Compound: Cyclo[3-[[2-(2,3,4,6-tetra-O-benzoylhexopyranosyl)amino]-1,3-benzoxazol-5-yl]alanyl-3-(2-iminoimidazolidin-4-yl)seryl-3-(3-hexopyranosyl-2-iminoimidazolidin 4-yl)seryl-serylglycyl-β-methylphenylalanyl] [Example 44]
MIC Enterococcus avium (GC 4558) (Enterococcus sp.): 4 µg/mL | MIC Enterococcus faecalis (ATCC 29212) (Enterococcus sp.): 16 µg/mL | MIC Enterococcus faecalis (GC 2242) (Enterococcus sp.): 16 µg/mL | MIC Enterococcus faecalis (GC 2691) (Enterococcus sp.): 16 µg/mL | MIC Enterococcus faecalis (GC 3059) (Enterococcus sp.): 32 µg/mL | MIC Enterococcus faecalis (GC 4552) (Enterococcus sp.): 16 µg/mL | MIC Enterococcus faecalis (GC 4553) (Enterococcus sp.): 8 µg/mL | MIC Enterococcus faecalis (GC 4554) (Enterococcus sp.): 32 µg/mL | MIC Enterococcus faecalis (GC 6189) (Enterococcus sp.): 16 µg/mL | MIC Enterococcus faecium (GC 2243) (Enterococcus sp.): 8 µg/mL | MIC Enterococcus faecium (GC 4556) (Enterococcus sp.): 32 µg/mL | MIC Enterococcus faecium (GC 4557) (Enterococcus sp.): 8 µg/mL | MIC Coagulase Negative Staphylococcus (GC 4547) (Staphylococcus sp.): 64 µg/mL | MIC Coagulase Negative Staphylococcus (GC 4548) (Staphylococcus sp.): 8 µg/mL | MIC Coagulase Negative Staphylococcus (GC 4549) (Staphylococcus sp.): 2 µg/mL | MIC Coagulase Negative Staphylococcus (GC 4551) (Staphylococcus sp.): 16 µg/mL | MIC Coagulase Negative Staphylococcus (GC 6257) (Staphylococcus sp.): 8 µg/mL | MIC Staphylococcus aureus (ATCC 29213) (Staphylococcus sp.): 64 µg/mL | MIC Staphylococcus aureus (GC 1131) (Staphylococcus sp.): 64 µg/mL | MIC Staphylococcus aureus (GC 3051) (Staphylococcus sp.): 64 µg/mL | MIC Staphylococcus aureus (GC 3053) (Staphylococcus sp.): 32 µg/mL | MIC Staphylococcus aureus (GC 4541) (Staphylococcus sp.): 64 µg/mL | MIC Staphylococcus aureus (GC 4542) (Staphylococcus sp.): 64 µg/mL | MIC Staphylococcus aureus (GC 4544) (Staphylococcus sp.): 16 µg/mL | MIC Staphylococcus aureus (GC 4545) (Staphylococcus sp.): 16 µg/mL | MIC Staphylococcus aureus-SMITH (GC 4543) (Staphylococcus sp.): 32 µg/mL | MIC Staphylococcus haemolyticus (GC 4546) (Staphylococcus sp.): 64 µg/mL | MIC Streptococcus agalactiae (GC 4564) (Streptococcus sp.): 16 µg/mL | MIC Streptococcus pneumoniae (ATCC 6301) (Streptococcus sp.): 8 µg/mL | MIC Streptococcus pneumoniae (GC 1894) (Streptococcus sp.): 16 µg/mL | MIC Streptococcus pneumoniae (GC 4565) (Streptococcus sp.): 32 µg/mL | MIC Streptococcus pyogenes (GC 4563) (Streptococcus sp.): 4 µg/mL | MIC Escherichia coli (ATCC 25922) (Escherichia coli): >64 µg/mL | MIC Escherichia coli (GC 4559) (Escherichia coli): >64 µg/mL | MIC Escherichia coli (GC 4560) (Escherichia coli): 64 µg/mL

MIC Enterococcus avium (GC 4558) (Enterococcus sp.; [1]): 2 µg/mL (≈ 1.35 µM) | MIC Enterococcus faecalis (ATCC 29212) (Enterococcus sp.; [1]): 4 µg/mL (≈ 2.7 µM) | MIC Enterococcus faecalis (GC 2242) (Enterococcus sp.; [1]): 4 µg/mL (≈ 2.7 µM) | MIC Enterococcus faecalis (GC 2691) (Enterococcus sp.; [1]): 4 µg/mL (≈ 2.7 µM) | MIC Enterococcus faecalis (GC 3059) (Enterococcus sp.; [1]): 4 µg/mL (≈ 2.7 µM) | MIC Enterococcus faecalis (GC 4552) (Enterococcus sp.; [1]): 4 µg/mL (≈ 2.7 µM) | MIC Enterococcus faecalis (GC 4553) (Enterococcus sp.; [1]): 2 µg/mL (≈ 1.35 µM) | MIC Enterococcus faecalis (GC 4554) (Enterococcus sp.; [1]): 4 µg/mL (≈ 2.7 µM) | MIC Enterococcus faecalis (GC 6189) (Enterococcus sp.; [1]): 4 µg/mL (≈ 2.7 µM) | MIC Enterococcus faecium (GC 2243) (Enterococcus sp.; [1]): 2 µg/mL (≈ 1.35 µM) | MIC Enterococcus faecium (GC 4556) (Enterococcus sp.; [1]): 4 µg/mL (≈ 2.7 µM) | MIC Enterococcus faecium (GC 4557) (Enterococcus sp.; [1]): 0.5 µg/mL (≈ 0.337 µM) | MIC Enterococcus faecalis (ATCC 29212) (Enterococcus sp.; broth dilution, inoculum 5×10^5 CFU/mL, 18 hours at 35° C., strain ATCC 29212): 4 µg/mL (≈ 2.7 µM) | MIC Enterococcus faecalis (GC 2242) (Enterococcus sp.; broth dilution, inoculum 5×10^5 CFU/mL, 18 hours at 35° C., strain GC 2242): 4 µg/mL (≈ 2.7 µM) | MIC Enterococcus faecium (GC 2243) (Enterococcus sp.; broth dilution, inoculum 5×10^5 CFU/mL, 18 hours at 35° C., strain GC 2243): 2 µg/mL (≈ 1.35 µM) | MIC Enterococcus faecalis (GC 2691) (Enterococcus sp.; broth dilution, inoculum 5×10^5 CFU/mL, 18 hours at 35° C., strain GC 2691): 4 µg/mL (≈ 2.7 µM) | MIC Enterococcus faecalis (GC 3059) (Enterococcus sp.; broth dilution, inoculum 5×10^5 CFU/mL, 18 hours at 35° C., strain GC 3059): 4 µg/mL (≈ 2.7 µM) | MIC Enterococcus faecalis (GC 4552) (Enterococcus sp.; broth dilution, inoculum 5×10^5 CFU/mL, 18 hours at 35° C., strain GC 4552): 4 µg/mL (≈ 2.7 µM) | MIC Enterococcus faecalis (GC 4553) (Enterococcus sp.; broth dilution, inoculum 5×10^5 CFU/mL, 18 hours at 35° C., strain GC 4553): 2 µg/mL (≈ 1.35 µM) | MIC Enterococcus faecalis (GC 4554) (Enterococcus sp.; broth dilution, inoculum 5×10^5 CFU/mL, 18 hours at 35° C., strain GC 4554): 4 µg/mL (≈ 2.7 µM) | MIC Enterococcus faecium (GC 4556) (Enterococcus sp.; broth dilution, inoculum 5×10^5 CFU/mL, 18 hours at 35° C., strain GC 4556): 4 µg/mL (≈ 2.7 µM) | MIC Enterococcus faecium (GC 4557) (Enterococcus sp.; broth dilution, inoculum 5×10^5 CFU/mL, 18 hours at 35° C., strain GC 4557): 0.5 µg/mL (≈ 0.337 µM) | MIC Enterococcus avium (GC 4558) (Enterococcus sp.; broth dilution, inoculum 5×10^5 CFU/mL, 18 hours at 35° C., strain GC 4558): 2 µg/mL (≈ 1.35 µM) | MIC Enterococcus faecalis (GC 6189) (Enterococcus sp.; broth dilution, inoculum 5×10^5 CFU/mL, 18 hours at 35° C., strain GC 6189): 4 µg/mL (≈ 2.7 µM) | MIC Staphylococcus aureus (ATCC 29213) (Staphylococcus sp.; strain ATCC 29213, broth dilution, 18 hours at 35° C.): 2 µg/mL (≈ 1.35 µM) | MIC Staphylococcus aureus (GC 1131) (Staphylococcus sp.; strain GC 1131, broth dilution, 18 hours at 35° C.): 4 µg/mL (≈ 2.7 µM) | MIC Staphylococcus aureus (GC 3051) (Staphylococcus sp.; strain GC 3051, broth dilution, 18 hours at 35° C.): 2 µg/mL (≈ 1.35 µM) | MIC Staphylococcus aureus (GC 3053) (Staphylococcus sp.; strain GC 3053, broth dilution, 18 hours at 35° C.): 4 µg/mL (≈ 2.7 µM) | MIC Staphylococcus aureus (GC 4541) (Staphylococcus sp.; strain GC 4541, broth dilution, 18 hours at 35° C.): 1 µg/mL (≈ 0.674 µM) | MIC Staphylococcus aureus (GC 4542) (Staphylococcus sp.; strain GC 4542, broth dilution, 18 hours at 35° C.): 4 µg/mL (≈ 2.7 µM) | MIC Staphylococcus aureus-SMITH (GC 4543) (Staphylococcus sp.; strain GC 4543, broth dilution, 18 hours at 35° C.): 2 µg/mL (≈ 1.35 µM) | MIC Staphylococcus aureus (GC 4544) (Staphylococcus sp.; strain GC 4544, broth dilution, 18 hours at 35° C.): 4 µg/mL (≈ 2.7 µM) | MIC Staphylococcus aureus (GC 4545) (Staphylococcus sp.; strain GC 4545, broth dilution, 18 hours at 35° C.): 2 µg/mL (≈ 1.35 µM) | MIC Coagulase Negative Staphylococcus (GC 4547) (Staphylococcus sp.; strain GC 4547, broth dilution, 18 hours at 35° C.): 2 µg/mL (≈ 1.35 µM) | MIC Coagulase Negative Staphylococcus (GC 4548) (Staphylococcus sp.; strain GC 4548, broth dilution, 18 hours at 35° C.): 1 µg/mL (≈ 0.674 µM) | MIC Coagulase Negative Staphylococcus (GC 4549) (Staphylococcus sp.; strain GC 4549, broth dilution, 18 hours at 35° C.): 1 µg/mL (≈ 0.674 µM) | MIC Coagulase Negative Staphylococcus (GC 4551) (Staphylococcus sp.; strain GC 4551, broth dilution, 18 hours at 35° C.): 2 µg/mL (≈ 1.35 µM) | MIC Streptococcus agalactiae (GC 4564) (Streptococcus sp.; [1]): <0.12 µg/mL | MIC Streptococcus pneumoniae (ATCC 6301) (Streptococcus sp.; [1]): 0.25 µg/mL (≈ 0.169 µM) | MIC Streptococcus pneumoniae (GC 1894) (Streptococcus sp.; [1]): <0.12 µg/mL | MIC Streptococcus pneumoniae (GC 4565) (Streptococcus sp.; [1]): 0.25 µg/mL (≈ 0.169 µM) | MIC Streptococcus pyogenes (GC 4563) (Streptococcus sp.; [1]): 0.25 µg/mL (≈ 0.169 µM) | MIC Streptococcus pneumoniae (ATCC 6301) (Streptococcus sp.; broth dilution, inoculum 5×10^5 CFU/mL, 18 hours at 35° C., strain ATCC 6301): 0.25 µg/mL (≈ 0.169 µM) | MIC Streptococcus pneumoniae (GC 1894) (Streptococcus sp.; broth dilution, inoculum 5×10^5 CFU/mL, 18 hours at 35° C., strain GC 1894): <0.12 µg/mL | MIC Streptococcus pyogenes (GC 4563) (Streptococcus sp.; broth dilution, inoculum 5×10^5 CFU/mL, 18 hours at 35° C., strain GC 4563): 0.25 µg/mL (≈ 0.169 µM) | MIC Streptococcus agalactiae (GC 4564) (Streptococcus sp.; broth dilution, inoculum 5×10^5 CFU/mL, 18 hours at 35° C., strain GC 4564): <0.12 µg/mL | MIC Streptococcus pneumoniae (GC 4565) (Streptococcus sp.; broth dilution, inoculum 5×10^5 CFU/mL, 18 hours at 35° C., strain GC 4565): 0.25 µg/mL (≈ 0.169 µM) | MIC Escherichia coli (ATCC 25922) (Escherichia coli; 18 hours at 35° C.): 128 µg/mL (≈ 86.3 µM) | MIC Escherichia coli (GC 4559) (Escherichia coli; 18 hours at 35° C.): 64 µg/mL (≈ 43.1 µM) | MIC Escherichia coli (GC 4560) (Escherichia coli; 18 hours at 35° C.): 2 µg/mL (≈ 1.35 µM)
Compound: CCCCN1CC(C(O)C2NC(=O)C(C(O)C3CNC(=N)N3)NC(=O)C(Cc3ccc(OC4OC(CO)C(OC5OC6COC7(OC6C(O)C5O)C5CC6CC(C5)CC7C6)C(O)C4O)cc3)NC(=O)C(C(C)c3ccccc3)NC(=O)CNC(=O)C(CO)NC2=O)N(C2OC(CO)C(O)C(O)C2O)C1=N (centres unmarked) [Example 224]
MIC Staphylococcus haemolyticus (GC 4546) (Staphylococcus sp.; strain GC 4546, broth dilution, 18 hours at 35° C.): 1 µg/mL (≈ 0.674 µM)
